Assay results from ChEMBL document CHEMBL3102727, “Conformationally constrained ortho-anilino diaryl ureas: discovery of 1-(2-(1'-neopentylspiro[indoline-3,4'-piperidine]-1-yl)phenyl)-3-(4-(trifluoromethoxy)phenyl)urea, a potent, selective, and bioavailable P2Y1 antagonist” (J Med Chem, 2013).
Values after ≈ are worked out from the molar mass of the structure shown. Active and inactive are the calls of the source. No cut-off for these calls is given here.

Columns and labels:
P2Y purinoceptor 1 [1] = molecular target: T1, P2Y purinoceptor 1 (Homo sapiens, UniProt P47900); experiment: Displacement of [33P]-2MeS-ADP from human P2Y1 receptor expressed in HEK293 cells after 1 hr by scintillation counting analysis; format: cell-based
[2] = Partition coefficient, log P of the compound at pH 7 by reversed-phase HPLC method; format: physicochemical; conditions: octanol/water
[3] = Aqueous solubility of the of partial crystalline form of compound in phosphate buffer at pH 6.5; format: physicochemical
[4] = Aqueous solubility of the amorphous form of compound in phosphate buffer at pH 6.5; format: physicochemical
P2Y purinoceptor 1 [5] = molecular target: T1, P2Y purinoceptor 1; experiment: Antagonist activity at P2Y1 receptor in washed human platelets assessed as 1 uM 2-methylthio-ADP-induced calcium flux by FLIPR assay; format: functional
[6] = Metabolic stability in human liver microsomes assessed as compound remaining after 10 mins; format: ADME; conditions: read-out: Stability
[7] = Metabolic stability in rat liver microsomes assessed as compound remaining after 10 mins; format: ADME; conditions: read-out: Stability
P2Y purinoceptor 1 [8] = molecular target: T1, P2Y purinoceptor 1; experiment: Antagonist activity at P2Y1 receptor in platelet-enriched human plasma assessed as 2.5 uM ADP-induced platelet aggregation preincubated for 1 min followed by ADP induction measured at 5 mins by aggregometric analysis
[9] = Metabolic stability in mouse liver microsomes assessed as compound remaining after 10 mins; format: ADME, Microsome; conditions: read-out: Stability
[10] = Aqueous solubility of the crystalline form of compound in phosphate buffer at pH 6.5; format: physicochemical

T1 sequence (P47900 whole entry): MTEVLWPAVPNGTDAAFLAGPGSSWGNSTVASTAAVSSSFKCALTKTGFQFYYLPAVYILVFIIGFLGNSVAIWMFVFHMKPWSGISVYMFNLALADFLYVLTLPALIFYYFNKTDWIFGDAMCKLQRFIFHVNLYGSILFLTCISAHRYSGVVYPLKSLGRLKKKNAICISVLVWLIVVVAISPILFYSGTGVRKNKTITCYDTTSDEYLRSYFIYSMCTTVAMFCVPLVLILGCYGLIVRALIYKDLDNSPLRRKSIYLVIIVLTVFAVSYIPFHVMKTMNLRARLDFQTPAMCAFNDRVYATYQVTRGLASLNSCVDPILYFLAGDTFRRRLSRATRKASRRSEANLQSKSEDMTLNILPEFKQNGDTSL

| Structure (SMILES) | Ki (P2Y purinoceptor 1 [1]) [nM] | logP [2] | solubility [4] [µg/mL] | further results |
| --- | --- | --- | --- | --- |
| CN1CCN(c2ccccc2NC(=O)Nc2ccc(OC(F)(F)F)cc2)c2ccccc21 | 94 | 5.5 |  |  |
| CC1(C)CN(c2ncccc2NC(=O)Nc2ccc(OC(F)(F)F)cc2)c2ccccc21 | 20.3 |  |  |  |
| CC(C)N1CCC2(CC1)CN(c1ccccc1NC(=O)Nc1ccc(OC(F)(F)F)cc1)c1ccccc12 |  | 4.5 |  | solubility [3]: 71 µg/mL (≈ 135 µM) |
| CC1(C)CN(c2ccccc2NC(=O)Nc2ccc(OC(F)(F)F)cc2)c2ccccc2O1 | 39 |  |  |  |
| O=C(Nc1ccc(OC(F)(F)F)cc1)Nc1ccccc1N1CCCc2ccccc21 | 36.5 |  |  |  |
| O=C(Nc1ccc(OC(F)(F)F)cc1)Nc1ccccc1N1CCOc2ccccc21 | 65 | 5.7 |  |  |
| O=C(Nc1ccc(OC(F)(F)F)cc1)Nc1ccccc1N1CC2(CC2)c2ccccc21 | 26 |  |  |  |
| CC(C)(C)CN1CCC2(C1)CN(c1ccccc1NC(=O)Nc1ccc(OC(F)(F)F)cc1)c1ccccc12 (stereo unspecified) | 5.8 | > 6.2 | 1 (≈ 1.86 µM) |  |
| CC(C)(C)CN1CCC2(CC1)CCN(c1ccccc1NC(=O)Nc1ccc(OC(F)(F)F)cc1)c1ccccc12 | 4.6 | > 6.2 | 16 (≈ 28.2 µM) | IC50 (P2Y purinoceptor 1 [5]): 9.9 nM; remaining at 10 min [6]: 90%; remaining at 10 min [7]: 87% |
| O=C(Nc1ccc(OC(F)(F)F)cc1)Nc1ccccc1N1CC2(CCCC2)c2ccccc21 | 6.6 |  |  |  |
| O=C(Nc1ccc(OC(F)(F)F)cc1)Nc1ccccc1N1CC2(CCC2)c2ccccc21 | 7.6 |  |  | IC50 (P2Y purinoceptor 1 [5]): 10.5 nM |
| COCCN1CCC2(CC1)CN(c1ccccc1NC(=O)Nc1ccc(OC(F)(F)F)cc1)c1ccccc12 | 390 | 5.1 | 66 (≈ 122 µM) |  |
| O=C(Nc1ccc(OC(F)(F)F)cc1)Nc1ccccc1-c1cc2ccccc2[nH]1 |  |  |  | IC50 (P2Y purinoceptor 1 [1]): 75 nM; Activity (P2Y purinoceptor 1 [8]): inactive |
| O=C(O)CN1CCC2(CC1)CN(c1ccccc1NC(=O)Nc1ccc(OC(F)(F)F)cc1)c1ccccc12 | 13500 | 4.4 | 5 (≈ 9.25 µM) |  |
| CC1(C)CCN(c2ncccc2NC(=O)Nc2ccc(OC(F)(F)F)cc2)c2ccccc21 | 16 |  |  |  |
| O=C(Nc1ccc(OC(F)(F)F)cc1)Nc1ccccc1N1CCCCc2ccccc21 | 830 |  |  |  |
| CC(C)(C)CN1CCC2(CC1)CN(c1ccccc1NC(=O)Nc1ccc(OC(F)(F)F)cc1)c1ncccc12 | 253 |  |  | IC50 (P2Y purinoceptor 1 [5]): 503 nM |

| Structure (SMILES) | Ki (P2Y purinoceptor 1 [1]) [nM] | logP [2] | solubility [4] [µg/mL] | further results |
| --- | --- | --- | --- | --- |
| O=C(Nc1ccc(OC(F)(F)F)cc1)Nc1ccccc1N1CC2(CCN(Cc3ccccc3)CC2)c2ccccc21 | 18.6 | > 6.3 |  | solubility [3]: < 1 µg/mL |
| CC(C)NC(=O)N1CCC2(CC1)CN(c1ccccc1NC(=O)Nc1ccc(OC(F)(F)F)cc1)c1ccccc12 | 200 | 5.7 |  | solubility [3]: 1 µg/mL (≈ 1.76 µM) |
| CN1CCC2(CC1)CN(c1ccccc1NC(=O)Nc1ccc(OC(F)(F)F)cc1)c1ccccc12 | 690 | 4.6 | 100 (≈ 201 µM) |  |
| CC1(C)CCN(c2ccccc2NC(=O)Nc2ccc(OC(F)(F)F)cc2)c2ccccc21 | 7.3 | > 6.2 |  | remaining at 10 min [9]: 63%; remaining at 10 min [6]: 51%; remaining at 10 min [7]: 6% |
| O=C(Nc1ccc(OC(F)(F)F)cc1)Nc1cccnc1-c1cc2ccccc2[nH]1 |  |  |  | IC50 (P2Y purinoceptor 1 [1]): 227 nM; Activity (P2Y purinoceptor 1 [8]): inactive |
| O=C(Nc1ccc(OC(F)(F)F)cc1)Nc1ccccc1N1CC2(CCN(CCO)CC2)c2ccccc21 | 4500 | 4.6 |  | solubility [3]: 123 µg/mL (≈ 234 µM) |
| COC(=O)N1CCC2(CC1)CN(c1ccccc1NC(=O)Nc1ccc(OC(F)(F)F)cc1)c1ccccc12 | 13.3 | 6 |  | solubility [10]: 1 µg/mL (≈ 1.85 µM) |
| O=C(Nc1ccc(OC(F)(F)F)cc1)Nc1ccccc1N1CC2(CCN(C(=O)OCc3ccccc3)CC2)c2ccccc21 | 36.6 |  |  | IC50 (P2Y purinoceptor 1 [5]): 5.9 nM |
| CC(C)(C)CN1CCC2(CC1)CN(c1ccccc1NC(=O)Nc1ccc(OC(F)(F)F)cc1)c1cccnc12 | 28.7 | > 6.2 | 5 (≈ 9.03 µM) |  |
| O=C(Nc1ccc(OC(F)(F)F)cc1)Nc1ccccc1N1CC2(CCCCC2)c2ccccc21 | 5.9 |  | < 1 | IC50 (P2Y purinoceptor 1 [5]): 2.2 nM |
| CC(C)(C)CN1CCC2(CC1)CN(c1ccccc1NC(=O)Nc1ccc(OC(F)(F)F)cc1)c1ccncc12 | 617 | 5.1 | 428 (≈ 773 µM) | IC50 (P2Y purinoceptor 1 [5]): 346 nM |
| CC(C)CN1CCC2(CC1)CN(c1ccccc1NC(=O)Nc1ccc(OC(F)(F)F)cc1)c1ccccc12 | 20.7 | 5.5 |  | remaining at 10 min [6]: 79%; remaining at 10 min [7]: 84%; solubility [3]: 7 µg/mL (≈ 13 µM) |
| CC1CCN(c2ccccc2NC(=O)Nc2ccc(OC(F)(F)F)cc2)c2ccccc21 (stereo unspecified) | 29.5 |  |  |  |
| O=C(Nc1ccc(OC(F)(F)F)cc1)Nc1ccccc1N1CC2(CCNCC2)c2ccccc21 | 4500 | 4.3 |  | solubility [3]: 84 µg/mL (≈ 174 µM) |
| CC(C)(C)CN1CCC2(CC1)CN(c1ccccc1NC(=O)Nc1ccc(OC(F)(F)F)cc1)c1cnccc12 | 11.5 | > 6 | 25 (≈ 45.2 µM) | IC50 (P2Y purinoceptor 1 [5]): 10.7 nM; remaining at 10 min [6]: 67%; remaining at 10 min [7]: 73% |
| CC(C)(C)CN1CCCC2(C1)CN(c1ccccc1NC(=O)Nc1ccc(OC(F)(F)F)cc1)c1ccccc12 (stereo unspecified) | 12.8 | > 6.2 | < 1 |  |
